For four compounds, IC50 results are on record in ChEMBL document CHEMBL1150656, “Constituents of the stigmas of Crocus sativus and their tyrosinase inhibitory activity” (J Nat Prod, 2002).

Each structure is given as a SMILES string.

This experiment addresses T1, Tyrosinase (Agaricus bisporus, UniProt O42713).
T1 sequence (O42713 whole entry): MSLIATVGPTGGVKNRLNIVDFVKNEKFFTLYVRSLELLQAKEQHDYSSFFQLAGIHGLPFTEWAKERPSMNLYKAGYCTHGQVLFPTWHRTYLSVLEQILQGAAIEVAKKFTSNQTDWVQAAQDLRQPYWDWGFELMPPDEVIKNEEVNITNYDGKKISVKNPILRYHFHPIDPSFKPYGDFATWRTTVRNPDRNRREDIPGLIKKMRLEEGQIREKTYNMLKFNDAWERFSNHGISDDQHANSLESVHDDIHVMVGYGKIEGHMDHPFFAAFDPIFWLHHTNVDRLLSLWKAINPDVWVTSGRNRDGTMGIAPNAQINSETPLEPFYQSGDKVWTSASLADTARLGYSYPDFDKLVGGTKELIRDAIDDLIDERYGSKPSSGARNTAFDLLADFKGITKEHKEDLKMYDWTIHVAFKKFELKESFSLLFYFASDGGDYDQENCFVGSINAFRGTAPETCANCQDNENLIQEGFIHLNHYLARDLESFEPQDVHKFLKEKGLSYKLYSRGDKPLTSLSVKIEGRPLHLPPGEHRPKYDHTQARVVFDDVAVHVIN
Description: Inhibition of mushroom tyrosinase

Compound `Oc1ccc(O)cc1` [HYDROQUINONE] displayed an IC50 of 4500 µM. Take `CC(/C=C/C=C(\C)C(=O)O[C@@H]1O[C@H](CO[C@@H]2O[C@H](CO)[C@@H](O)[C@H](O)[C@H]2O)[C@@H](O)[C@H](O)[C@H]1O)=C\C=C\C=C(C)\C=C\C=C(/C)C(=O)O[C@@H]1O[C@H](CO[C@@H]2O[C@H](CO)[C@@H](O)[C@H](O)[C@H]2O)[C@@H](O)[C@H](O)[C@H]1O` [CROCIN]: 140 µM corresponded to half-maximal inhibition (IC50). The same measure for `CC(/C=C/C=C(\C)C(=O)O)=C\C=C\C=C(C)\C=C\C=C(/C)C(=O)O[C@@H]1O[C@H](CO[C@@H]2O[C@H](CO)[C@@H](O)[C@H](O)[C@H]2O)[C@@H](O)[C@H](O)[C@H]1O` [CROCIN 3]: 960 µM. The result for `CC1=C([C@@H](O)CC(=O)O)C(C)(C)C[C@@H](O)C1` [CROCUSATIN H] reads 870 µM.

By IC50 is commonly meant the concentration at which inhibition is half-maximal. A higher IC50 goes with a need for much substance.
